{
  "source": "patent US8741653B2",
  "about": "“Single recombination system and methods of use” (priority 2008, dated 2014)",
  "key": {"MVA": {"tested_on": "MVA", "assay_type": "cell-based, Modified Vaccinia Ankara virus"}},
  "data": [
    {"smiles": "CN(C)[C@@H]1C(O)=C(C(N)=O)C(=O)[C@@]2(O)C(O)=C3C(=O)c4c(O)cccc4[C@@](C)(O)[C@H]3C[C@@H]12", "note": "[tetracycline]", "values": [
      {"measurement": "reduction of MVA replication", "setting": "MVA", "value": 1, "unit": "log"},
      {"measurement": "cytotoxic effect of tetracycline", "setting": "CEF cells", "value": "pronounced cytotoxic effect"}
    ]}
  ]
}
